ChEMBL document CHEMBL1126184, “Synthesis and in vitro evaluation of boronated uridine and glucose derivatives for boron neutron capture therapy” (1992)

Key:
Glioma [1] = conditions: Rattus norvegicus
Description: Compound's ability to selectively deliver the requisite amounts of boron to tumors(amount of boron present in media in rat F98 Glioma cells at 0h after incubation with the compound.)

Glioma [2] = conditions: Rattus norvegicus; remark: listed apart in the source
Description: Compound's ability to selectively deliver the requisite amounts of boron to tumors (cellular uptake of boron by the rat F98 Glioma cells at 16h was determined.)

With “1-[3-(1,2,3,4,5,6,7,8,9,10decabora-Cyclododec-11-en-11-ylmethoxy)-4-hydroxy-5-hydroxymethyl-tetrahydro-furan-2-yl]-1H-pyrimidine-2,4-dione” the Boron in media at 0h (Glioma [1]) was 6.75 µg of B/ml and the Cellular uptake of boron at 16h (ug of B (g of cells)-1) (Glioma [2]) was 104.
For “1-[4-Hydroxy-5-hydroxymethyl-3-(1,2,3,4,5,6,7,8,9nonabora-cycloundec-10-en-10-ylmethoxy)-tetrahydro-furan-2-yl]-1H-pyrimidine-2,4-dione”, the Boron in media at 0h (Glioma [1]) was 6.75 µg of B/ml and the Cellular uptake of boron at 16h (ug of B (g of cells)-1) (Glioma [2]) was 1.5.
With “1-[5-(1,2,3,4,5,6,7,8,9,10decabora-Cyclododec-11-en-11-ylmethoxymethyl)-3,4-dihydroxy-tetrahydro-furan-2-yl]-1H-pyrimidine-2,4-dione” the Boron in media at 0h (Glioma [1]) was 6.75 µg of B/ml and the Cellular uptake of boron at 16h (ug of B (g of cells)-1) (Glioma [2]) was 83.8.
“4-(1,2,3,4,5,6,7,8,9,10decabora-Cyclododec-11-en-11-ylmethoxy)-6-hydroxymethyl-tetrahydro-pyran-2,3,5-triol” was tested, and the Boron in media at 0h (Glioma [1]) was 6.75 µg of B/ml and the Cellular uptake of boron at 16h (ug of B (g of cells)-1) (Glioma [2]) was 65.2.
For “1-[4-(1,2,3,4,5,6,7,8,9,10decabora-Cyclododec-11-en-11-ylmethoxy)-3-hydroxy-5-hydroxymethyl-tetrahydro-furan-2-yl]-1H-pyrimidine-2,4-dione”, the Boron in media at 0h (Glioma [1]) was 6.75 µg of B/ml and the Cellular uptake of boron at 16h (ug of B (g of cells)-1) (Glioma [2]) was 96.2.
